Reference: patent US12508273B2, “Beta-1,3′-galactosyllactose for the treatment of gut barrier function diseases” (N.V. Nutricia, priority 2019, dated 2025)

Columns and labels:
Assay type in all cases: cell-based, human
[1] = tested on: IL-8 (CXCL8) release by Caco-2 cells; assay: DON-induced IL-8 (CXCL8) release by Caco-2 cells, ELISA; conditions: DON alone 4.2 M, 24 h
Method: (§1) Caco-2 cell monolayers were thus grown in a transwell system, which is a model for intestinal barrier function. The monolayers were pretreated for 24 h with different GLs, including beta3′-GL, alpha3′-GL, beta4′-GL and beta6′-GL in a concentration of 0.75 wt % of the GL, before being exposed to the fungal toxin deoxynivalenol (DON), which is a trigger and model compound to impair intestinal barrier. DON was diluted to a final concentration of […] in complete cell medium and added to the apical side as well as to the basolateral side of the transwell inserts. […] Incubation with DON was 24 h.
(§2) Measurements of the transepithelial electrical resistance (TEER) and lucifer yellow (LY) permeability were conducted to investigate barrier integrity. […] Results are expressed as a percentage of the initial value. For paracellular tracer flux assay the membrane impermeable lucifer yellow (LY) (Sigma, St Luis, MO, USA) was added in a concentration of 16 μg/ml to the apical compartment in the transwell plate for 4 h, and the paracellular flux was determined by measuring the fluorescence intensity in the basolateral compartment with a spectrophotofluorimeter (FLUOstar Optima, BMG Labtech, Offenburg, Germany) set at excitation and emission wavelengths of 410 and 520 nm, respectively. […]

Caco-2 cells = assay: Viability of Caco-2 cells exposed to DON; conditions: DON 4.2 M in complete cell medium, apical and basolateral
Method: as §1

Caco-2 cell monolayer [2] = assay: Transepithelial electrical resistance (TEER) of Caco-2 monolayers after DON-induced impairment
Method: (§3) Caco-2 cells were used according to established methods. In brief: cells were cultured in Dulbecco's modified Eagle medium (DMEM) and seeded at a density of 0.3×10^5 cells into 0.3 cm^2 high pore density (0.4 μm) inserts with a polyethylene terephthalate membrane (BD Biosciences, Franklin Lakes, NJ, USA) placed in a 24-well plate. The Caco-2 cells were maintained in a humidified atmosphere of 95 air and 5% CO2 at 37° C. After 17-19 days of culturing, a confluent monolayer was obtained with a mean Transepithelial electrical resistance (TEER) exceeding 400 Ωcm^2 measured by a Millicell-Electrical Resistance System voltohm-meter (Millipore, Temecula, CA, USA).
as §1
Measurements of the transepithelial electrical resistance (TEER) and lucifer yellow (LY) permeability were conducted to investigate barrier integrity. For TEER measurements a Millicel-ERS voltohmmeter connected to a pair of chopsticks electrodes was used to measure the TEER values. Results are expressed as a percentage of the initial value. For paracellular tracer flux assay the membrane impermeable lucifer yellow (LY) (Sigma, St Luis, MO, USA) was added in a concentration of 16 μg/ml to the apical compartment in the transwell plate for 4 h, and the paracellular flux was determined by measuring the fluorescence intensity in the basolateral compartment with a spectrophotofluorimeter (FLUOstar Optima, BMG Labtech, Offenburg, Germany) set at excitation and emission wavelengths of 410 and 520 nm, respectively. Release of interleukin-8 (IL-8 or CXCL8), which is a typical marker for inflammation, was quantified in the medium of the apical side and the basolateral side of the Caco-2 transwell inserts in response to the treatments. CXCL8 concentrations were measured by using the human IL-8 ELISA assay (BD Biosciences, Pharmingem, San Diego, CA, USA) according to manufacturer's instructions. For more details on materials and methods see Akbari et al, 2016, Eur J Nutr. 56(5):1919-1930.
Barrier function experiments were performed in a similar way as in example 2 using the following concentrations of Vivinal GOS (VGOS): 0 (Control), 0.25 wt % (VGOS 0.25), 0.5 wt % (VGOS 0.5), 0.75 wt % (VGOS 0.75), 1 wt % (VGOS 1), 1.5 wt % (VGOS 1.5) and 2 wt % (VGOS 2). For TOS concentrations of 0.25 wt % (TOS 0.25) and 0.5 wt % (TOS 0.5) were tested.

Caco-2 cell monolayer [3] = assay: Lucifer yellow (LY) paracellular flux across Caco-2 monolayers after DON-induced impairment; conditions: GL 0.75 wt %, 24 h pretreatment, then DON 4.2 M 24 h; FIGS. 1C, 1D
Method: as §3, with “USA). […]” for “USA).”
as §2

[4] = GL 0.75 wt %, 24 h pretreatment, then DON 4.2 M 24 h

## CC1=C[C@H]2O[C@@H]3[C@H](O)C[C@](C)([C@@]2(CO)[C@H](O)C1=O)[C@]31CO1 [DON, deoxynivalenol]
[1]
  CXCL8 (IL-8) release: increased CXCL8 (IL-8) release
Caco-2 cells
  viability of the Caco-2 cells: did not affect the viability

## OC[C@H]1O[C@H](O[C@H]2[C@@H](O)[C@@H](CO)O[C@@H](O[C@H]3[C@H](O)[C@@H](O)C(O)O[C@@H]3CO)[C@@H]2O)[C@H](O)[C@@H](O)[C@H]1O (stereo partly drawn) [alpha3′-GL, Gal (alpha 1-3)-Gal (beta 1-4)-Glc]
Caco-2 cell monolayer [2]; [4]
  effect on DON-induced loss of epithelial barrier integrity (TEER and LY flux): did not prevent the DON-induced disrupted intestinal barrier

## OC[C@H]1O[C@@H](O[C@@H]2[C@H](O)[C@@H](O)[C@H](O[C@H]3[C@H](O)[C@@H](O)C(O)O[C@@H]3CO)O[C@@H]2CO)[C@H](O)[C@@H](O)[C@H]1O (stereo partly drawn) [beta4′-GL, Gal (beta 1-4)-Gal (beta 1-4)-Glc]
Caco-2 cell monolayer [2]; [4]
  effect on DON-induced loss of epithelial barrier integrity (TEER and LY flux): did not show a significant effect

## OC[C@H]1O[C@@H](OC[C@H]2O[C@@H](O[C@H]3[C@H](O)[C@@H](O)C(O)O[C@@H]3CO)[C@H](O)[C@@H](O)[C@H]2O)[C@H](O)[C@@H](O)[C@H]1O (stereo partly drawn) [beta6′-GL, Gal (beta 1-6)-Gal (beta 1-4)-Glc]
Caco-2 cell monolayer [2]; [4]
  effect on DON-induced loss of epithelial barrier integrity (TEER and LY flux): did not show a significant effect

## Gal (beta 1-3)-Gal (beta 1-4)-Glc [beta3′-GL]
Caco-2 cell monolayer [3]
  LY flux after DON challenge: reduction in the DON-affected LY flux
Caco-2 cell monolayer [2]; Caco-2, DON challenge, beta3′-GL as part of TOS
  concentration of beta3′-GL in TOS at which the barrier effect is observed: lower than 0.17 wt %
Caco-2 cell monolayer [2]; [4]
  effect on DON-induced loss of epithelial barrier integrity (TEER and LY flux): prevented the DON-induced loss of epithelial barrier integrity
Caco-2 cell monolayer [2]; GL 0.75 wt %, 24 h pretreatment, then DON 4.2 M 24 h, FIGS. 1A, 1B
  TEER after DON challenge: increased TEER values
Caco-2 cell monolayer [2]; GL 0.75 wt %, 24 h pretreatment, then DON 4.2 M 24 h, listed as beta1,3′-galactosyllactose
  effect on DON-induced loss of epithelial barrier integrity (TEER and LY flux): prevented loss of epithelial barrier integrity to a much higher extent than other galactosyl-lactoses
